The values that follow come from PubChem BioAssay AID328 (DTP/NCI, 2004).

The subject of the assay is BDF1 mice, P388 leukemia ip, median survival T/C. The assay can be described thus: NCI In Vivo Anticancer Drug Screen. Data for tumor model P388 Leukemia (intraperitoneal) in B6D2F1 (BDF1) mice. The settings on record: endpoint: median survival time, higher = longer survival. Put shortly: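 Read-out is survival of treated animals expressed relative to the vehicle group, as a T/C ratio.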

Setting [1] is: dose: 25.0 mg/kg/injection, schedule: Q01DX009 (ip), vehicle: saline with Tween-80.
[2] abbreviates: dose: 50.0 mg/kg/injection, schedule: Q01DX009 (ip), vehicle: saline with Tween-80.
Setting [3] is: dose: 100.0 mg/kg/injection, schedule: Q01DX009 (ip), vehicle: saline with Tween-80.
Setting [4] is: dose: 200.0 mg/kg/injection, schedule: Q01DX009 (ip), vehicle: saline with Tween-80.
Setting [5] is: dose: 400.0 mg/kg/injection, schedule: Q01DX009 (ip), vehicle: saline.
The mark [6] stands for this setting: dose: 25.0 mg/kg/injection, schedule: Q04DX003 (ip), vehicle: saline with Tween-80.
The mark [7] stands for this setting: dose: 100.0 mg/kg/injection, schedule: Q04DX003 (ip), vehicle: saline with Tween-80.
[8] abbreviates: dose: 200.0 mg/kg/injection, schedule: Q04DX003 (ip), vehicle: saline with Tween-80.
[9] abbreviates: dose: 50.0 mg/kg/injection, schedule: Q01DX009 (ip), vehicle: saline.

Values joined by “and” are separate entries in the source; they are usually repeats but may differ in a detail not shown here. Identical values can stand only once. Inconclusive results and toxic doses are left out. Residues, ends and D or L forms follow the SMILES beside them. *: point of attachment. Cbz = O=C(OCc1ccccc1)*

As to `CCC/[N+]([O-])=C/c1ccc([N+](=O)[O-])o1`, the T/C runs as follows: under setting [1], 101 % of control; under setting [2], 105 % of control; under setting [3], 115 % of control.

In the case of `COC1C(=O)CCC2(CO2)C1(O)C1(C)OC1CCC(C)C` (stereo not drawn), the T/C (dose: 22.0 mg/kg/injection, schedule: Q01DX009 (ip), vehicle: saline with Tween-80) was 109 % of control; the T/C (dose: 44.0 mg/kg/injection, schedule: Q01DX009 (ip), vehicle: saline with Tween-80) was 109 % of control; the T/C (dose: 87.5 mg/kg/injection, schedule: Q01DX009 (ip), vehicle: saline with Tween-80) is 110 % of control and 118 % of control.

For the molecule `COc1cc(-c2ccc(Nc3ccccc3C(=O)O)c(OC)c2)ccc1N`, the T/C by setting is: under setting [1], 110 % of control; (dose: 33.0 mg/kg/injection, schedule: Q01DX009 (ip), vehicle: saline with Tween-80) 109 % of control; (dose: 75.0 mg/kg/injection, schedule: Q01DX009 (ip), vehicle: saline with Tween-80) 163 % of control.

On to `CCOC(=O)CNC(=O)C(CC(C)C)NC(=O)C1CCCN1C(=O)OCc1ccccc1` (stereo not drawn) (Cbz-Pro-Leu-Gly-OEt; configuration not given here), for which the T/C is, setting by setting: (dose: 12.5 mg/kg/injection, schedule: Q01DX009 (ip), vehicle: Klucel (hydroxypropylcellulose) (HPC)) 124 % of control; (dose: 25.0 mg/kg/injection, schedule: Q01DX009 (ip), vehicle: Klucel (hydroxypropylcellulose) (HPC)) 89 % of control; (dose: 50.0 mg/kg/injection, schedule: Q01DX009 (ip), vehicle: Klucel (hydroxypropylcellulose) (HPC)) 95 % of control; (dose: 100.0 mg/kg/injection, schedule: Q04DX003 (ip), vehicle: Klucel (hydroxypropylcellulose) (HPC)) 87 % of control; (dose: 200.0 mg/kg/injection, schedule: Q04DX003 (ip), vehicle: Klucel (hydroxypropylcellulose) (HPC)) 91 % of control; (dose: 400.0 mg/kg/injection, schedule: Q04DX003 (ip), vehicle: Klucel (hydroxypropylcellulose) (HPC)) 87 % of control.

Take `COC(=O)[C@@H]1[C@H](O)[C@H](C)[C@H](O)[C@H](C)/C=C\C=C(C)C(=O)Nc2c(C)c(OC(C)=O)c3c(c2O)C(=O)C(C)=C2OCOC(=C23)C(C)=C[C@@](C)(O)[C@H](O)[C@@H](C)[C@H]1OC(C)=O`: the T/C (dose: 50.0 mg/kg/injection, schedule: Q01DX009 (ip), vehicle: saline + alcohol) is 95 % of control; the T/C (dose: 100.0 mg/kg/injection, schedule: Q01DX009 (ip), vehicle: Klucel (hydroxypropylcellulose) (HPC)) was 106 % of control; the T/C (dose: 100.0 mg/kg/injection, schedule: Q01DX009 (ip), vehicle: saline + alcohol) is 99 % of control; the T/C (dose: 200.0 mg/kg/injection, schedule: Q01DX009 (ip), vehicle: Klucel (hydroxypropylcellulose) (HPC)) is 116 % of control and 123 % of control; the T/C (dose: 200.0 mg/kg/injection, schedule: Q01DX009 (ip), vehicle: saline + alcohol) is 95 % of control; the T/C (dose: 400.0 mg/kg/injection, schedule: Q01DX009 (ip), vehicle: Klucel (hydroxypropylcellulose) (HPC)) was 115 % of control. The T/C (dose: 400.0 mg/kg/injection, schedule: Q01DX009 (ip), vehicle: saline + alcohol) was 100 % of control.

Regarding `CCCC(NC(N)=O)C(CCC)NC(N)=O` (stereo not drawn), the T/C is 102 % of control (dose: 12.5 mg/kg/injection, schedule: Q01DX009 (ip), vehicle: saline with Tween-80); 100 % of control under setting [1]; 89 % of control under setting [2].

In the case of `C[C@@H]1C[C@@]2(C)[C@@H](CC[C@@H]3[C@@H]2CC[C@]2(C)[C@@H](O)CC[C@@H]32)C[C@@H]1O`, the T/C is 100 % of control (dose: 220.0 mg/kg/injection, schedule: Q01DX010 (sc), vehicle: steriod suspending solution) and 115 % of control (dose: 440.0 mg/kg/injection, schedule: Q01DX010 (sc), vehicle: steriod suspending solution).

For `O=[N+]([O-])c1ccc(-c2nnc3ncccn23)cc1`, the T/C is 102 % of control under setting [2], 98 % of control under setting [3] and 90 % of control under setting [4].

Take `COC(=O)CCCCCCCCC(C)c1ccccc1` (stereo not drawn): the T/C reads like this: (dose: 264.0 mg/kg/injection, schedule: Q01DX009 (ip), vehicle: saline) 110 % of control; under setting [5], 110 % of control.

With `CN(N)c1ccccc1`, the T/C by setting is: (dose: 6.25 mg/kg/injection, schedule: Q04DX003 (ip), vehicle: saline with Tween-80) 93 % of control; (dose: 12.5 mg/kg/injection, schedule: Q04DX003 (ip), vehicle: saline with Tween-80) 95 % of control; under setting [6], 90 % of control; (dose: 50.0 mg/kg/injection, schedule: Q04DX003 (ip), vehicle: saline with Tween-80) 104 % of control and 105 % of control; under setting [7], 113 % of control; under setting [8], 123 % of control.

For the molecule `C[n+]1c(/C=C/c2ccc(N(CCC(=O)O)CCC(=O)O)cc2)ccc2cc(Cl)ccc21`, the T/C is, setting by setting: (dose: 12.5 mg/kg/injection, schedule: Q01DX001 (ip), vehicle: saline with Tween-80) 109 % of control; (dose: 25.0 mg/kg/injection, schedule: Q01DX001 (ip), vehicle: saline with Tween-80) 88 % of control.

For `O=c1oc(-c2cc([N+](=O)[O-])ccc2Cl)nc2ccccc12`, the T/C reads like this: under setting [6], 95 % of control; under setting [7], 95 % of control.

For `C=CCNC(=O)C(Br)(CC)CC`, the T/C by setting is: (dose: 12.5 mg/kg/injection, schedule: Q01DX009 (ip), vehicle: saline) 100 % of control; (dose: 25.0 mg/kg/injection, schedule: Q01DX009 (ip), vehicle: saline) 100 % of control; under setting [9], 88 % of control and 100 % of control.

Turning to `COc1ccc(/C=C/c2ccc3ccccc3[n+]2C)cc1OC`, the T/C was 150 % of control (dose: 18.75 mg/kg/injection, schedule: Q01DX009 (ip), vehicle: saline) and 160 % of control (dose: 37.5 mg/kg/injection, schedule: Q01DX009 (ip), vehicle: saline).

Take `CN(C)S(=O)(=O)c1ccccc1C(O)(c1ccccc1)c1ccccc1`: the T/C is 99 % of control under setting [7]; 116 % of control under setting [8]; 91 % of control (dose: 400.0 mg/kg/injection, schedule: Q04DX003 (ip), vehicle: saline with Tween-80).

Turning to `C/C(=C\Cl)CO`, the T/C is 95 % of control (dose: 56.25 mg/kg/injection, schedule: Q01DX001 (ip), vehicle: saline); 100 % of control (dose: 56.25 mg/kg/injection, schedule: Q04DX003 (ip), vehicle: saline); 100 % of control (dose: 112.5 mg/kg/injection, schedule: Q01DX001 (ip), vehicle: saline); 95 % of control (dose: 112.5 mg/kg/injection, schedule: Q04DX003 (ip), vehicle: saline); 95 % of control (dose: 150.0 mg/kg/injection, schedule: Q01DX009 (ip), vehicle: alcohol); 90 % of control (dose: 225.0 mg/kg/injection, schedule: Q01DX001 (ip), vehicle: saline). The T/C reads like this: (dose: 225.0 mg/kg/injection, schedule: Q01DX009 (ip), vehicle: alcohol) 100 % of control; (dose: 225.0 mg/kg/injection, schedule: Q04DX003 (ip), vehicle: saline) 90 % of control.

For `Cc1cc2nc(N)sc2cc1C`, the T/C is 115 % of control (dose: 12.5 mg/kg/injection, schedule: Q01DX009 (ip), vehicle: other) and 105 % of control (dose: 25.0 mg/kg/injection, schedule: Q01DX009 (ip), vehicle: other).

Turning to `O=C(O)c1ccc(COc2ccc([N+](=O)[O-])cc2Cl)cc1`, the T/C is 91 % of control under setting [2], 100 % of control under setting [3] and 100 % of control under setting [4].

As for `COC(=O)C1c2cc3c(c(O)c2CCC1(C)O)C(=O)c1c(O)cc2c(c1C3=O)OC1OC2(C)C(O)C(N(C)C)C1O` (stereo not drawn), the T/C is, setting by setting: (dose: 11.0 mg/kg/injection, schedule: Q01DX009 (ip), vehicle: saline) 113 % of control; (dose: 200.0 mg/kg/injection, schedule: Q01DX010 (ip), vehicle: saline) 105 % of control.

For the molecule `O=[N+]([O-])c1cc(-c2nc3ccccc3[nH]2)cc([N+](=O)[O-])c1`, the T/C under setting [2] was 110 % of control and the T/C under setting [3] is 91 % of control.

With `NC(Cn1ccc(=O)c(O)c1)C(=O)O` (stereo not drawn), the T/C was 95 % of control under setting [9]; 100 % of control (dose: 100.0 mg/kg/injection, schedule: Q01DX009 (ip), vehicle: saline); 108 % of control (dose: 200.0 mg/kg/injection, schedule: Q01DX009 (ip), vehicle: saline); 122 % of control under setting [5].

As to `CN(C)Cc1cc(C(C)(C)CC(C)(C)C)ccc1O`, the T/C reads like this: (dose: 100.0 mg/kg/injection, schedule: Q04DX002 (ip), vehicle: Klucel (hydroxypropylcellulose) (HPC)) 114 % of control; (dose: 200.0 mg/kg/injection, schedule: Q04DX002 (ip), vehicle: Klucel (hydroxypropylcellulose) (HPC)) 99 % of control.
